Paper PMC5862592, “CDK8/19 inhibition induces premature G1/S transition and ATR-dependent cell death in prostate cancer cells” (Oncotarget, 2018)
Where two headings read alike, the source gives them in different places.

How the values were obtained:
Test in all cases: biochemical
Set-up in all cases: KINOMEscan active site-directed competition binding assay (DiscoveRx), 456 kinases, per cent of control at 300 nM
Settings in all cases: read-out: Percent of Control (%)
[1] = biological target: AAK1 (Homo sapiens, UniProt Q2M2I8)
How it was run: (§1)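 Each compound is tested at 300 nmol/L against a panel of 456 kinases. Interaction is quantified by competition for the kinase active site.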

[2] = biological target: T1, DRAK2 (Homo sapiens, UniProt O94768)
T1 construct: gene STK17B
T1 sequence (O94768 whole entry): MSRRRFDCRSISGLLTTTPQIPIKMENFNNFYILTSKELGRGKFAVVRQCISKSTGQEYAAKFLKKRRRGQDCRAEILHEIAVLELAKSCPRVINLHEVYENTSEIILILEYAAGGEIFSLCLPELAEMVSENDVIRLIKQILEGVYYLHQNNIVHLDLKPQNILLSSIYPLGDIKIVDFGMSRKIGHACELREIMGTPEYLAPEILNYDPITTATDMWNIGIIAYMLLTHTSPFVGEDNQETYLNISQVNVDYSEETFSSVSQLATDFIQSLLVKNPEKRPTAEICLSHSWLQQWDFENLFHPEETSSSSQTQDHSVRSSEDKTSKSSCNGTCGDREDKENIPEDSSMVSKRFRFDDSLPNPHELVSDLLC
How it was run: as §1

[3] = biological target: IRAK4 (Homo sapiens, UniProt Q9NWZ3)
Chain of IRAK4 (Q9NWZ3 whole entry): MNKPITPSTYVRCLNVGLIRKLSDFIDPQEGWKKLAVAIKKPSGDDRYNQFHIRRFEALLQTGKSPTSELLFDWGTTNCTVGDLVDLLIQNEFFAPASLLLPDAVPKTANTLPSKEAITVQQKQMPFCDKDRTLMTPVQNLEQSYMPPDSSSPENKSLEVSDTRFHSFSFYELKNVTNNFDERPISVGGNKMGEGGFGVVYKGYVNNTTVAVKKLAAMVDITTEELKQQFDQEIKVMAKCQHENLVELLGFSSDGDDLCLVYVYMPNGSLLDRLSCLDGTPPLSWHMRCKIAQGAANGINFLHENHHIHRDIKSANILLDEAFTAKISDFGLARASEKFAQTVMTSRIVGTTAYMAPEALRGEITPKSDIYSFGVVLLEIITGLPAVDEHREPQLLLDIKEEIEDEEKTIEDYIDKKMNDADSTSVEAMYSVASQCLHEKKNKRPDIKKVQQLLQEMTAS
How it was run: as §1

[4] = biological target: MAP3K15 (Homo sapiens, UniProt Q6ZN16)
Chain of MAP3K15 (Q6ZN16 whole entry): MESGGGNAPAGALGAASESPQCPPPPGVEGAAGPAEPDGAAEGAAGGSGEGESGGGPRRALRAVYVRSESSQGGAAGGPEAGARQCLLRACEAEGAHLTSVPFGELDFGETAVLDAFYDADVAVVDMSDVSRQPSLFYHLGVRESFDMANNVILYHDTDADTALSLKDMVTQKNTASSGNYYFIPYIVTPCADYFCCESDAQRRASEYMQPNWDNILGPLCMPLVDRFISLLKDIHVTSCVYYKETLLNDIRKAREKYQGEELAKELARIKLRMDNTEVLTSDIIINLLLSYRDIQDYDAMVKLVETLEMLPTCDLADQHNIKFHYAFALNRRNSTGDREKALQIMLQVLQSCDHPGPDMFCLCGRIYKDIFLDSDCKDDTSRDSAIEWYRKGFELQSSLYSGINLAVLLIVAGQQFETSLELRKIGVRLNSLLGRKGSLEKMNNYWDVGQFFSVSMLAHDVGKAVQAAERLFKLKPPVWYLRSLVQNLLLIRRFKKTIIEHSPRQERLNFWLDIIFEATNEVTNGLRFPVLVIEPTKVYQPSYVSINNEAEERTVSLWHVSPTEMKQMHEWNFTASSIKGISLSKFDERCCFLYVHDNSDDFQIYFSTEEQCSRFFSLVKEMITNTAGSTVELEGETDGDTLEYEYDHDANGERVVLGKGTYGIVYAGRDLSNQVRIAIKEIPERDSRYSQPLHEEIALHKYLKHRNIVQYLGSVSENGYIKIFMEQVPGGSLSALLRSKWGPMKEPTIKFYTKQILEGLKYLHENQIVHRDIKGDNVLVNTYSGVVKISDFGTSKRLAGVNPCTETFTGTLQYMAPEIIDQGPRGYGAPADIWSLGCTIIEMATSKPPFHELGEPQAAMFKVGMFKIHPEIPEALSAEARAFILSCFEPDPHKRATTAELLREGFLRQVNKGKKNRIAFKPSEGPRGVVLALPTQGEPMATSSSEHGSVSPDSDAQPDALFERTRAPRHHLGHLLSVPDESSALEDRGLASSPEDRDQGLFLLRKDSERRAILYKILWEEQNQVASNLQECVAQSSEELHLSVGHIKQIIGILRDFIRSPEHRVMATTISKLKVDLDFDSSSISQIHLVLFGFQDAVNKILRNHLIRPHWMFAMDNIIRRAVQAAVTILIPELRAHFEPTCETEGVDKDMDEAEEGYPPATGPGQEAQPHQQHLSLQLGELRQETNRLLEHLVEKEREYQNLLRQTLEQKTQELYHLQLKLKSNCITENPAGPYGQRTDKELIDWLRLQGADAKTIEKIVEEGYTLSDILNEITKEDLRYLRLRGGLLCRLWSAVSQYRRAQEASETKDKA
How it was run: as §1

[5] = biological target: T2, GCN2(Kin.Dom.2,S808G) (Homo sapiens, UniProt Q9P2K8, S808G)
T2 construct: gene EIF2AK4; Kin.Dom.2
How it was run: as §1

[6] = biological target: LATS1 (Homo sapiens, UniProt O95835)
How it was run: as §1

[7] = biological target: MET (Homo sapiens, UniProt P08581)
How it was run: as §1

[8] = biological target: PKNB(M.tuberculosis) (Mycobacterium tuberculosis, UniProt P9WI81)
Chain of PKNB(M.tuberculosis) (P9WI81 whole entry): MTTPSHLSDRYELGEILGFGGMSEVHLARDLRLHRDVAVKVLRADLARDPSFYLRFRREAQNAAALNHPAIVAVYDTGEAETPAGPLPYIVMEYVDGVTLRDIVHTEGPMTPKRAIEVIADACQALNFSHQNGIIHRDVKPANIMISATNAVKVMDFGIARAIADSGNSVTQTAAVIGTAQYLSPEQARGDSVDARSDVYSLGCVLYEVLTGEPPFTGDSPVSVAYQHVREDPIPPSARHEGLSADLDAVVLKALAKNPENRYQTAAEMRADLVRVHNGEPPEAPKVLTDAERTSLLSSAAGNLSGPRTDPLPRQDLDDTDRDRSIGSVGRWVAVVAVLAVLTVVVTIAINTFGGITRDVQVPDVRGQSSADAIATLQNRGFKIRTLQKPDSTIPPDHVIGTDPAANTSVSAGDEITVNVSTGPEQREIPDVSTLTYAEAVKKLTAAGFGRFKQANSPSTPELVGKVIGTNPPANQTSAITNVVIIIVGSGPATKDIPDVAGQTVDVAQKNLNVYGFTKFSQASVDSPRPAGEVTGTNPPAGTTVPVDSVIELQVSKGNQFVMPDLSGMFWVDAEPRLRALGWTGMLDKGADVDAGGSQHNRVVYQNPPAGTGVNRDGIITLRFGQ
How it was run: as §1

[9] = biological target: PIK3CG (Homo sapiens, UniProt P48736)
How it was run: as §1

[10] = biological target: GRK1 (Homo sapiens, UniProt Q15835)
How it was run: as §1

[11] = biological target: T3, MST1 (Homo sapiens, UniProt Q13043)
T3 construct: gene STK4
How it was run: as §1

[12] = biological target: CSNK1D (Homo sapiens, UniProt P48730)
How it was run: as §1

[13] = biological target: SNRK (Homo sapiens, UniProt Q9NRH2)
How it was run: as §1

[14] = biological target: PKN1 (Homo sapiens, UniProt Q16512)
How it was run: as §1

[15] = biological target: PIP5K1A (Homo sapiens, UniProt Q99755)
How it was run: as §1

[16] = biological target: CDK5 (Homo sapiens, UniProt Q00535)
Chain of CDK5 (Q00535 whole entry): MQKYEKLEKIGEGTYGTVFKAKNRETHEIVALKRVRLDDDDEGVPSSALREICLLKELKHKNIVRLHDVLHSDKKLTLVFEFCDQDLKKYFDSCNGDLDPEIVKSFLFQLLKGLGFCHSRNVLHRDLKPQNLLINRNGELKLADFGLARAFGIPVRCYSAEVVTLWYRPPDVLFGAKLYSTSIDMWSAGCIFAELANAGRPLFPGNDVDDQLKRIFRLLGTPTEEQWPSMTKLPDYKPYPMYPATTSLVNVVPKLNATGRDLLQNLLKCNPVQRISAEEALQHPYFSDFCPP
How it was run: as §1

[17] = biological target: T4, ERK2 (Homo sapiens, UniProt P28482)
T4 construct: gene MAPK1
How it was run: as §1

[18] = biological target: T5, ABL1(Q252H)-phosphorylated (Homo sapiens, UniProt P00519, Q252H)
T5 construct: phosphorylated
How it was run: as §1

[19] = biological target: T6, NDR2 (Homo sapiens, UniProt Q9Y2H1)
T6 construct: gene STK38L
T6 sequence (Q9Y2H1 whole entry): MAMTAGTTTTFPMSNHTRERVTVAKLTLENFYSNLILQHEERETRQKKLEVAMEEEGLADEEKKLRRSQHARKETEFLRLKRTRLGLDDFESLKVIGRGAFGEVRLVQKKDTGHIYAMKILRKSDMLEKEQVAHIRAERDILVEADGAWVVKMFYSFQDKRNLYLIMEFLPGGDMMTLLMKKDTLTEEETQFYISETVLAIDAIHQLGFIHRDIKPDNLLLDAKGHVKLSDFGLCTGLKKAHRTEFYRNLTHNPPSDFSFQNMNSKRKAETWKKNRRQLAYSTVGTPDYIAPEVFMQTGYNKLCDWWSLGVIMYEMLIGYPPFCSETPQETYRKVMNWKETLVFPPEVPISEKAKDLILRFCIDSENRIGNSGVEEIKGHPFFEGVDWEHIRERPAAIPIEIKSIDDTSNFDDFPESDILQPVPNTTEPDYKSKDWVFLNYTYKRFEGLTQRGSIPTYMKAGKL
How it was run: as §1

[20] = biological target: HCK (Homo sapiens, UniProt P08631)
Chain of HCK (P08631 whole entry): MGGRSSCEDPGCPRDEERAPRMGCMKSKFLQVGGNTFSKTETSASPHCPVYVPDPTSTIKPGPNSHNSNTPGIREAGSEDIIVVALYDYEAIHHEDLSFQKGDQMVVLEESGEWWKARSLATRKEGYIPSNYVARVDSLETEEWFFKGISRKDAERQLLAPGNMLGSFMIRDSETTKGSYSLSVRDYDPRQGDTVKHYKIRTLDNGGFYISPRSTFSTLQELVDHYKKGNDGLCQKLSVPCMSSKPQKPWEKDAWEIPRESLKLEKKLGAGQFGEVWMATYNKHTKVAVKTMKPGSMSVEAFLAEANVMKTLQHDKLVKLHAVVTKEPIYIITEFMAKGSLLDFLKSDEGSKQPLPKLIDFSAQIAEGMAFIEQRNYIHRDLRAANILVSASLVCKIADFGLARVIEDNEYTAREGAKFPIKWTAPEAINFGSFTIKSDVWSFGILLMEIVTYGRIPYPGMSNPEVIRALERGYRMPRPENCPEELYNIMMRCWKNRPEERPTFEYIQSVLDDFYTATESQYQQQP
How it was run: as §1

[21] = biological target: AXL (Homo sapiens, UniProt P30530)
Chain of AXL (P30530 whole entry): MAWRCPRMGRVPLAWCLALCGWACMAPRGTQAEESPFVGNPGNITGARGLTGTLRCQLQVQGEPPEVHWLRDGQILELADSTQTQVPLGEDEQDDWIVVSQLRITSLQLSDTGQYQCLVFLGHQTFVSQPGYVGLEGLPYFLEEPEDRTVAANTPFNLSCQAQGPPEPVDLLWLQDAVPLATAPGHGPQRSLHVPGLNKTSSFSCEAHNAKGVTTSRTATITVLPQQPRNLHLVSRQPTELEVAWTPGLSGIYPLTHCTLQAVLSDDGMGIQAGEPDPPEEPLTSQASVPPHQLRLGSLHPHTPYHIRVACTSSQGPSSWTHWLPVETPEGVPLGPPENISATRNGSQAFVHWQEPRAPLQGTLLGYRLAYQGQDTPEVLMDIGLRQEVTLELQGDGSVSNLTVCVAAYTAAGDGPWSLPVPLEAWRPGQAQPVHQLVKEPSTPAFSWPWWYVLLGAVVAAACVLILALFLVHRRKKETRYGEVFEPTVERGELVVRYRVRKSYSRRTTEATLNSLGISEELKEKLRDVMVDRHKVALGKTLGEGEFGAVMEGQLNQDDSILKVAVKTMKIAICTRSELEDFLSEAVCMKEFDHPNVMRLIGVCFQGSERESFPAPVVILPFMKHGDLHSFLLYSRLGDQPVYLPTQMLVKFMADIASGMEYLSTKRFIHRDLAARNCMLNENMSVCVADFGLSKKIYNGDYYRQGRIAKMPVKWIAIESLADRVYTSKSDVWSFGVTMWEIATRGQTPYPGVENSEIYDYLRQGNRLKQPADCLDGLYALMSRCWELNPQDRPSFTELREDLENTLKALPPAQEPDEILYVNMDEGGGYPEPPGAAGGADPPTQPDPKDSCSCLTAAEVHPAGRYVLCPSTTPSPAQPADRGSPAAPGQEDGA
How it was run: as §1

[22] = biological target: EPHA2 (Homo sapiens, UniProt P29317)
How it was run: as §1

Compound: O=C(/C=C/c1cnccc1-c1ccc(F)cc1)Nc1ccc(CCc2nnco2)cc1 [T-418, (2E)-3-(4-(4-fluorophenyl)pyridin-3-yl)-N-(4-(2-(1,3,4-oxadiazol-2-yl)ethyl)phenyl)acrylamide]
- remaining binding at 0.3 µM ([1]; sheet T-418): 83%
- remaining binding at 0.3 µM ([2]; sheet T-418): 94%
- remaining binding at 0.3 µM ([3]; sheet T-418): 100%
- remaining binding at 0.3 µM ([4]; sheet T-418): 100%
- remaining binding at 0.3 µM ([5]; sheet T-418): 100%
- remaining binding at 0.3 µM ([6]; sheet T-418): 60%
- remaining binding at 0.3 µM ([7]; sheet T-418): 92%
- remaining binding at 0.3 µM ([8]; sheet T-418): 84%
- remaining binding at 0.3 µM ([9]; sheet T-418): 100%
- remaining binding at 0.3 µM ([10]; sheet T-418): 100%
- remaining binding at 0.3 µM ([11]; sheet T-418): 89%
- remaining binding at 0.3 µM ([12]; sheet T-418): 84%
- remaining binding at 0.3 µM ([13]; sheet T-418): 73%
- remaining binding at 0.3 µM ([14]; sheet T-418): 48%
- remaining binding at 0.3 µM ([15]; sheet T-418): 94%
- remaining binding at 0.3 µM ([16]; sheet T-418): 80%
- remaining binding at 0.3 µM ([17]; sheet T-418): 79%
- remaining binding at 0.3 µM ([18]; sheet T-418): 84%
- remaining binding at 0.3 µM ([19]; sheet T-418): 100%
- remaining binding at 0.3 µM ([20]; sheet T-418): 100%
- remaining binding at 0.3 µM ([21]; sheet T-418): 73%
- remaining binding at 0.3 µM ([22]; sheet T-418): 100%

Compound: Cc1ncccc1Oc1sc(C(N)=O)c2c1-c1c(cnn1C)CC2 [T-474, 1-methyl-8-((2-methylpyridin-3-yl)oxy)-4,5-dihydro-1H-thieno[3,4-g]indazole-6-carboxamide]
- remaining binding at 0.3 µM [1]: 93%
- remaining binding at 0.3 µM [2]: 100%
- remaining binding at 0.3 µM [3]: 100%
- remaining binding at 0.3 µM [4]: 100%
- remaining binding at 0.3 µM [5]: 100%
- remaining binding at 0.3 µM [6]: 67%
- remaining binding at 0.3 µM [7]: 100%
- remaining binding at 0.3 µM [8]: 75%
- remaining binding at 0.3 µM [9]: 88%
- remaining binding at 0.3 µM [10]: 100%
- remaining binding at 0.3 µM [11]: 100%
- remaining binding at 0.3 µM [12]: 61%
- remaining binding at 0.3 µM [13]: 71%
- remaining binding at 0.3 µM [14]: 54%
- remaining binding at 0.3 µM [15]: 99%
- remaining binding at 0.3 µM [16]: 94%
- remaining binding at 0.3 µM [17]: 85%
- remaining binding at 0.3 µM [18]: 89%
- remaining binding at 0.3 µM [19]: 100%
- remaining binding at 0.3 µM [20]: 100%
- remaining binding at 0.3 µM [21]: 83%
- remaining binding at 0.3 µM [22]: 86%
